The record followed here is patent US12208093B2 (THE JOHNS HOPKINS UNIVERSITY, priority 2016, dated 2025).

The subject of one experiment is HCMV entry. Nature of the experiment: Virus entry immunofluorescence assay for pp65. Conditions: emetine 75 nM, GCV 10 μM, CpG 2006 10 μM; added 24 h prior to infection. The experiment is classed as cell-based. As for the experimental part: Immunofluorescence. […] Compounds were diluted in serum-free medium and added to HFFs seeded on chamber slides 24 h prior to infection. After infection and treatment, cells were fixed, permeabilized, and air-dried. Cells were then incubated with mouse monoclonal anti-pp65 antibody at 37° C. in humidified chambers for 1 h, washed three times with 0.1% Tween 20 in PBS (PBST), incubated with rhodamine conjugated anti-mouse IgG (Sigma Chemical Co) at 37° C. in humidified chambers for 1 h, and washed with PBST (0.1% Tween 20). A drop of mount oil containing DAPI (4,6-diamidino-2-phenylindole) (Santa Cruz) was added to the slides before visualization with a Nikon Eclipse E-800 fluorescence microscope.

The test system of experiment [1] is pp28-luciferase HCMV Towne. Nature of the experiment: microbe, parasite or virus in culture. The experiment is classed as cell-based, human cytomegalovirus (HCMV). The conditions noted are these: HFFs 0.5-2 million cells/plate; emetine 75 nM, GCV 5 μM.
Source text: A GCV-resistant pp28-luciferase HCMV strain, with a C607Y mutation in UL97 was also used. The recombinant viruses express luciferase under the control of the late CMV gene promoter, pp28. […] The recombinant viruses provide a highly-sensitive and reproducible reporter system which correlates with the classic plaque reduction assay. […] Human herpes virus strains were: luciferase HSV1-KOS/Dlux/oriS and clinical isolates of HSV2.
Cell culture, virus infection and anti-viral assays. […] Infection with HCMV or HSV was performed in HFFs, and infection with mouse CMV was performed in MEFs. For HCMV, cells were seeded in either a 96-well plate or 100 mm culture plates (Corning Costar, Sigma Aldrich) at 0.5 or 2 million cells/plate. Following 90 minute adsorption, media was removed and cells were washed with PBS. Media containing 4% FBS and compounds were added to each well. Infected treated HFFs were collected at 72 hpi and lysates were assayed for luciferase activity using a luciferase assay kit (Promega, Madison, WI) on GloMax®-Multi+Detection System (Promega). In second cycle assays, supernatants were collected from all conditions of the first cycle at 96 hpi and used for infection of fresh HFFs in 96-well-plates. […] For HSV1-KOS/Dlux/oriS, a luciferase assay was performed at 24 hpi. Plaque assays were performed with clinical isolates of HSV2 and HCMV Towne. […] Following virus adsorption (60 min and 90 min for HSV and HCMV, respectively), virus was aspirated, and DMEM containing 4% fetal bovine serum (FBS) with (for HSV) or without (for HCMV) 0.5% carboxymethyl-cellulose, were added with the compounds at indicated concentrations into triplicate wells. After incubation at 37° C. for 10 days (for HCMV) or 2 days (for HSV), the overlay was removed and plaques were counted after crystal violet staining.
Another experiment relates to HCMV. Nature of the experiment: Generation of drug resistant virus. Conditions: 5 passages, two fold increases of concentration. It is filed as cell-based, human cytomegalovirus (HCMV).
In another experiment the test system is MDM2-IE2 interaction. Briefly: Co-immunoprecipitation of MDM2 and IE2 in transfected HEK293 cells. The experiment is classed as cell-based. Conditions: HEK293 cells transfected with IE1/2; emetine 75 nM or GCV 5 μM, 4 h. As for the experimental part: Transient transfections. HEK-293 cells seeded into 10 cm petri dishes were transfected with HCMV plasmid encoding IE1 and IE2 (pRL45) plasmid, 1 μg/dish, using Lipofectamine 2000 in serum free medium. After 6 h, 10% FBS containing media was added along with 10 μM of MG132. […] Cells were then harvested to prepare lysates for IP.
Co-immunoprecipitation (IP) and immunoblotting. Non-infected, infected or emetine-treated HFFs were treated with MG132 (10 μM) for 12 h. Cells were harvested after 24 hpi and lysed with IP buffer containing 150 mM NaCl, 50 mM Tris pH 7.5, 2 mM EDTA, 0.5% TritonX-100 and 0.5% NP-40-40. 1 mg of lysate was precleared with bead slurry for 30 min. The precleared lysates were incubated with anti-MDM2 (2 μg) antibody overnight. The antibody complexes were isolated using protein A/G beads (Santa Cruz), washed three times with 50% IP buffer. The immunoprecipitate—protein A/G beads were boiled in SDS sample buffer, and the supernatant was analyzed on SDS-PAGE gels after immunoblotting as described previously. […] Reverse IPs were performed by pulling down the precleared lysates with either anti-p53 antibody or anti-RPS14 antibody and detected with MDM2. […] In other experiments, transfected or treated HEK293 cell lysates were pulled-down with anti-IE2 antibody and detected with anti-MDM2 antibody and vice-versa for reverse IP.

With `Nc1nc(O)c2ncn(COC(CO)CO)c2n1` [GCV, Ganciclovir], the “inhibition of viral entry” value with HCMV entry is “neither emetine nor GCV inhibited viral entry”. Also, in experiment [1], the “HCMV inhibition in relation to cell density at time of infection” value was “inhibited HCMV replication irrespective of cell density”. The “selection of resistant virus with increasing drug concentration” value with HCMV was “did select for resistant mutants”. Further, the “interaction of MDM2 and IE2” value in the experiment on MDM2-IE2 interaction is on record as “no effect”.
